{"source": "patent US20060199819A1", "about": "“Inhibition of cyclooxygenase-2 activity” (Celgene Corporation, priority 2000, published 2006)", "key": {"[1]": {"test_system": "cyclooxygenase-2", "test": "LPS-mediated induction of cyclooxygenase-2 in macrophages (RAW 264.7 cells)", "type": "cell-based", "details": "macrophages in RAW 264.7 cells; as little as 50 μM", "from_the_text": "(§1) Cyclooxygenase-2, the rate-limiting enzyme in prostaglandin biosynthesis, is expressed in tumor associated macrophages. Because prostaglandins, notable PGE2, are important mediators of inflammatory response and angiogenesis, inhibition of their biosynthesis can be used to combat these effects. Inhibition of the cyclooxygenase-2 protein by a test compound can be conveniently observed in cells in which induction of the protein has been induced by lipopolysaccharide (LPS). Thus it is known that LPS enhances cyclooxygenase-2 transcription and this effect thus can be used as convenient model for evaluating cyclooxygenase-2 inhibition.\n(§2) In one experiment, LPS-mediated induction of cyclooxygenase-2, as well as PGE2 biosynthesis, in macrophages in RAW 264.7 cells was blocked by as little as 50 μM of 3-phthalimido-2,6-dioxopiperidine. It appears, however, that LPS-enhanced cyclooxy-genase-2 transcription is not itself effected by the amide or imide. That is, the amide or imide has no effect on the induction of cyclooxygenase-2 by LPS. On the other hand, the amide or imide enhances the degradation of cyclooxygenase-2 messenger RNA. Consequently while not wishing to be bound by any theory, it appears the inhibitory effect of the amide or imide operates on the activity of cyclooxygenase-2 by some post-transcriptional mechanism."}, "[2]": {"test_system": "PGE2 biosynthesis", "test": "LPS-mediated PGE2 biosynthesis in macrophages (RAW 264.7 cells)", "type": "cell-based", "details": "macrophages in RAW 264.7 cells, as little as 50 μM", "from_the_text": "as §1, §2"}}}
{"compound": "O=C1CCC(N2C(=O)c3ccccc3C2=O)C(=O)N1", "note": "(centres unmarked) [3-phthalimido-2,6-dioxopiperidine]", "values": [{"measurement": "LPS-mediated induction of cyclooxygenase-2", "setting": "[1]", "result": "blocked"}, {"measurement": "PGE2 biosynthesis", "setting": "[2]", "result": "blocked"}]}
